Test results from patent publication US12102618B2, “Use of riluzole prodrugs to treat ataxias” (Biohaven Therapeutics Ltd., priority 2017, dated 2024).

Tested on: ataxia symptoms in subjects with spinocerebellar ataxia (SCA)
Test: Phase IIb/III randomized, double-blind, placebo-controlled trial of BHV-4157 in SCA (BHV4157-201), 8-week randomization phase: SARA
Type: in vivo, human
Design: key to Total SARA change / Total SARA, Δ Btw Groups / Axial SARA [#1-4] change / Appendicular SARA [4-8] change / Total SARA change (LSmeans) / Gait [#1] change (LSmeans) / Axial Items [#1-4] change (LSmeans) / Appendicular [#5-8] change (LSmeans) / Change in Total SARA Score / Axial Items [1-4] change / Appendicular Items [5-8] change / ΔSARA (between groups): SARA points; total scale 0 (no ataxia) to 40 (severe)
Conditions: for Total SARA, Δ Btw Groups / ΔSARA (between groups): BHV-4157 vs placebo; for Total SARA, week 8 StdChg / Total SARA, week 8 Δ Mean: all subjects
Method: One measure for assessment of the methods of the present invention is by using the Scale for the Assessment and Rating of Ataxia (“SARA”).
The SARA was developed as a clinician-administered instrument to measure severity of symptoms in patients with SCA. While there are multiple scales available, the SARA has been tested in many patients with SCA.
The SARA scores range from 0 (no ataxia) to 40 (severe). The SARA takes approximately 15 minutes to administer. Assessed items include: • Gait (rated 0 to 8) • Stance (0 to 6) • Sitting (0 to 4) • Speech disturbance (0 to 6) • Finger chase (0 to 4) • Nose-finger test (0 to 4) • Fast alternating hand movements (0 to 4) • Heel-shin slide (0 to 4)
Once each of the 8 categories has been assessed, the total score is calculated to determine the severity of ataxia. For motor activities of the four extremities (items 5-8), assessments are performed bilaterally and the mean values are used to obtain the total score.
The purpose of this study is to compare the efficacy of BHV-4157 versus placebo on ataxia symptoms in subjects with spinocerebellar ataxia (SCA).
Study Type: Interventional Study Design: Allocation: Randomized • Intervention Model: Parallel Assignment • Masking: Quadruple (Participant, Care Provider, Investigator, Outcomes Assessor) • Primary Purpose: Treatment • Official Title: A Phase IIb/III, Randomized, Double-blind, Placebo-controlled Trial of BHV-4157 in Adult Subjects With Spinocerebellar Ataxia Primary Outcome Measures: • To measure the change in total score on the Scale for Assessment and Rating of Ataxia (SARA) [Time Frame: The change in total score from baseline to week 8.] Secondary Outcome Measures: • To assess the safety and tolerability of BHV-4157 in subjects with SCA by measuring the frequency and severity of adverse events and discontinuations of adverse events. [Time Frame: Baseline to week 8.] Measured by the frequency and severity of adverse events and discontinuations of adverse events. • To compare efficacy of BHV-4157 with placebo on patient impression of benefit via use of the PGI-C [Time Frame: Baseline to Week 8] Change in PGI-C score
The study is a Phase IIb/III, multicenter, randomized, double-blind, 2-arm placebo-controlled parallel-group study designed to assess safety, tolerability, and efficacy signals in a population of patients with Spinocerebellar Ataxia (SCA). Subjects will be randomized to receive placebo (QD) or BHV-4157 (140 mg QD), stratified by diagnosis (genotype) and baseline severity (Gait Item of the SARA of ≤4 and >4). Subjects with SCA3 genotype will be limited to comprise up to approximately 10% of the total population so that this most common type of SCA is not over-represented.
Dosing will continue for 8 weeks. Subjects will return to the clinic two weeks after discontinuing study medication for a follow-up safety visit. In addition, subjects completing the Randomization Phase will be offered 48 weeks of open-label treatment as long as the PI believes open-label treatment offers an acceptable risk-benefit profile. Subjects who agree to enter the Extension Phase will not be required to wash-out of drug or complete the follow-up safety visit, but instead should continue dosing as specified in the extension phase. Subjects entering the Extension Phase would have their first Extension Visit four weeks after the Week 8 Randomization Phase visit. If there is a delay of two weeks or more in dosing between the Randomization Phase and the Extension Phase, subjects will be required to complete an Extension Baseline Visit. Thereafter, subjects will undergo visits every fourth week through Week 12 of this phase. Then subjects will undergo visits every 12 weeks up to Week 48 of this phase.

[1] = Females Subjects in Experienced Site Group, n = 17
[2] = Females Subjects in Stable Subgroup, n = 18
[3] = NOT-STABLE subjects, n = 28, week 8
[4] = STABLE subjects, n = 34, week 8
[5] = experienced sites/raters population
[6] = experienced sites/raters population, n = 37, week 8

SMILES: CN(CC(=O)Nc1nc2ccc(OC(F)(F)F)cc2s1)C(=O)CNC(=O)CN [BHV-4157, troriluzole]
- Responder Analysis, ≥3 points in All Subjects (n = 67) (Females): 32%
- Responders, ≥1 point [1]: 71%
- Responders, ≥3 points [1]: 41%
- Responders, ≥1 point [2]: 67%
- Responders, ≥3 points [2]: 39%
- Change in Total SARA Score (Females, All Subjects, n = 31, week 8): −1.08
- Change in Total SARA Score (Females, Experience of Sites, n = 20): −1.15
- Change in Total SARA Score (Females, STABLE Subgroup, n = 18): −1.33
- Responder Analysis, ≥3 points in Stable Subjects (n = 38) (Females, printed on line Experience of Sites): 35%
- Responder Analysis, ≥3 points at Experienced sites (n = 33) (Females, printed on line STABLE Subgroup): 39%
- Appendicular SARA [4-8] change [3]: −0.15
- Axial SARA [#1-4] change [3]: −0.46
- Total SARA change (STABLE subjects (screening-to-baseline SARA within 1 point), n = 34, 140 mg QD, baseline to week 8): −0.90
- Total SARA, Δ Btw Groups (STABLE subjects, week 8): −0.39
- Appendicular SARA [4-8] change [4]: −0.36
- Axial SARA [#1-4] change [4]: −0.27
- Responders, Response Definition ≥3 points (Total SARA) (Table 1, printed on line Total SARA STABLE, week 8): 24%
- Responders, Response Definition ≥ 1 point (Total SARA) (Table 1, printed on line Total SARA UNSTABLE, week 8): 59%
- Total SARA change (UNSTABLE / NOT-STABLE subjects, n = 28, 140 mg QD, week 8): −0.87
- Total SARA, Δ Btw Groups (UNSTABLE subjects, week 8): 0.62
- Total SARA, week 8 StdChg (n = 63, May-18): 0.459
- Total SARA, week 8 Δ Mean (n = 63, May-18 analysis, listed as BHV): −0.810
- Total SARA, week 8 Δ Mean (n = 63, May-18 analysis, listed as BHV5157): −0.81
- Total SARA, week 8 StdChg (n = 63, Sep-17 analysis): 0.459
- Total SARA, week 8 Δ Mean (n = 63, Sep-17 analysis): −0.810
- Responders, Response Definition ≥1 point [5]: 51.4%
- Responders, Response Definition ≥3 points [5]: 21.6%
- Appendicular [#5-8] change (LSmeans) [6]: −0.52
- Axial Items [#1-4] change (LSmeans) [6]: −0.47
- Gait [#1] change (LSmeans) [6]: −0.14
- Total SARA change (LSmeans) [6]: −1.37
- Responder Analysis, ≥3 points in All Subjects (n = 65) (lighter median): 33%
- Change in Total SARA Score (lighter median (≤76.4 kg), all lighter subjects, n = 27, week 8): −1.38
- ΔSARA (between groups) (lighter median, EXP Sites): −1.03
- Change in Total SARA Score (lighter median, EXP Sites, n = 18): −1.64
- ΔSARA (between groups) (lighter median, Stable Subgroup): −0.83
- Change in Total SARA Score (lighter median, Stable Subgroup, n = 19): −1.18
- Appendicular Items [5-8] change (lighter median, n = 27): −0.69
- Axial Items [1-4] change (lighter median, n = 27): −0.85
- Responder Analysis, ≥3 points in Stable Subjects (n = 36) (lighter median, printed on line EXP Sites): 39%
- Responder Analysis, ≥3 points at Experienced sites (n = 36) (lighter median, printed on line Stable Subgroup): 26%
